Laboratory results published in patent US20050250752A1, “Cembranoids with chemopreventive activity” (priority 2002, published 2005).

Tests used:
[1] = tested on: Epstein-Barr virus early antigen (EBV-EA) of Raji cells induced by tumor promoter (TPA); experiment: Inhibition of EBV-EA activation induced by TPA in Raji cells; format: cell-based; settings: TPA 32 pmol, Raji cells, 48 h
Experimental: (§1) The inhibition of EBV-EA activation was assayed using Raji cells (virus non-producer type). The indicator cells (Raji, 1×10^6/ml) were incubated at 37° C. for 48 h in 1 ml of medium containing n-butyric acid (4 mmol), TPA(12-O-tetradecanoylphorbol 13-acetate)(32 pmol=20 ng in 2 μl DMSO) as inducer and various amounts of test compounds in 5 μl DMSO. Smears were made from the cell suspension, and the activated cells, which were stained by EBV-EA positive serum from nasopharygeal carcinoma patients were detected by an indirect immunofluorescence technique. For each compound, assays were performed in triplicate. The average EBV-EA induction of the test compounds was expressed as a relative ratio to the control experiment (100%), which was carried out only with n-butyric acid plus TPA. The viability of treated Raji cells was assayed by the Trypan Blue staining method.

Raji cells = experiment: Viability of treated Raji cells (Trypan Blue staining); format: cell-based
Experimental: as §1

[2] = tested on: papillomas (mouse skin carcinogenesis induced by DMBA/TPA); experiment: Two-stage mouse skin carcinogenesis model induced by DMBA/TPA; format: in vivo, mouse (female ICR); settings: topical 85 nm 1 hour before TPA, ICR mice
Experimental: In the two-stage mouse skin carcinogenesis model induced by DMBA/TPA, the animals (specific pathogen-free female ICR, 6 weeks old) were divided into 5 groups, 15 mice each. The back of each mouse was shaved with surgical clippers, and the mice were topically treated with DMBA (100 μg, 390 nmol) in acetone (0.1 ml) as an initiation treatment. For the positive control group, 1 week after initiation with DMBA, mice were promoted by the application with TPA (1 μg, 1.7 nmol) in acetone (0.1 ml) twice a week. The other four groups received a topical application of each of the sarcophine semi-synthetic derivatives (85 nm) 1 hour before application of the tumor promoter. The incidence of papillomas was observed weekly for 20 weeks. The percentage of mice bearing papillomas and the average number of papillomas per mouse were recorded.

[3] = x 1000 mol ratio/TPA (32 nmol/mL)

CC1=CC=C([C@@](C)(O)CO)C[C@H](O)C(C)=CCCC2(C)OC2CC1 (stereo partly drawn) [Compound 12, 7,8-Epoxy-1,3,11-cembratriene-13S(β),15R(α),16-triol]
EBV-EA induction, percentage relative to the positive control value (100%) ([1]; x 10 mol ratio/TPA): 93.8%
EBV-EA induction, percentage relative to the positive control value (100%) ([1]; x 100 mol ratio/TPA): 74.6%
EBV-EA induction, percentage relative to the positive control value (100%) ([1]; x 500 mol ratio/TPA): 55.8%
EBV-EA induction, percentage relative to the positive control value (100%) [1, 3]: 5.9%
viability percentage of Raji cells (indicator cells) (Raji cells; x 10 mol ratio/TPA): > 80%
viability percentage of Raji cells (indicator cells) (Raji cells; x 100 mol ratio/TPA): > 80%
viability percentage of Raji cells (indicator cells) (Raji cells; x 500 mol ratio/TPA): > 80%
viability percentage of Raji cells (indicator cells) (Raji cells; [3]): 60%
Papilloma Bearer (%) ([2]; week 1 of promotion): 0.0%
Papillomas/mouse ([2]; week 1 of promotion): 0.0
Papilloma Bearer (%) ([2]; week 2 of promotion): 0.0%
Papillomas/mouse ([2]; week 2 of promotion): 0.0
Papilloma Bearer (%) ([2]; week 3 of promotion): 0.0%
Papillomas/mouse ([2]; week 3 of promotion): 0.0
Papilloma Bearer (%) ([2]; week 4 of promotion): 0.0%
Papillomas/mouse ([2]; week 4 of promotion): 0.0
Papilloma Bearer (%) ([2]; week 5 of promotion): 0.0%
Papillomas/mouse ([2]; week 5 of promotion): 0.0
Papilloma Bearer (%) ([2]; week 6 of promotion): 0.0%
Papillomas/mouse ([2]; week 6 of promotion): 0.0
Papilloma Bearer (%) ([2]; week 7 of promotion): 0.0%
Papillomas/mouse ([2]; week 7 of promotion): 0.0
Papilloma Bearer (%) ([2]; week 8 of promotion): 13.3%
Papillomas/mouse ([2]; week 8 of promotion): 0.2
Papilloma Bearer (%) ([2]; week 9 of promotion): 20.0%
Papillomas/mouse ([2]; week 9 of promotion): 0.5
Papilloma Bearer (%) ([2]; week 10 of promotion): 26.6%
Papillomas/mouse ([2]; week 10 of promotion): 1.1
Papilloma Bearer (%) ([2]; week 11 of promotion): 33.3%
Papillomas/mouse ([2]; week 11 of promotion): 1.5
Papilloma Bearer (%) ([2]; week 12 of promotion): 33.3%
Papillomas/mouse ([2]; week 12 of promotion): 2.0
Papilloma Bearer (%) ([2]; week 13 of promotion): 40.0%
Papillomas/mouse ([2]; week 13 of promotion): 2.2
Papilloma Bearer (%) ([2]; week 14 of promotion): 46.6%
Papillomas/mouse ([2]; week 14 of promotion): 2.7
Papilloma Bearer (%) ([2]; week 15 of promotion): 53.3%
Papillomas/mouse ([2]; week 15 of promotion): 3.1
Papilloma Bearer (%) ([2]; week 16 of promotion): 60.0%
Papillomas/mouse ([2]; week 16 of promotion): 3.7
Papilloma Bearer (%) ([2]; week 17 of promotion): 66.6%
Papillomas/mouse ([2]; week 17 of promotion): 4.0
Papilloma Bearer (%) ([2]; week 18 of promotion): 73.3%
Papillomas/mouse ([2]; week 18 of promotion): 4.1
Papilloma Bearer (%) ([2]; week 19 of promotion): 73.3%
Papillomas/mouse ([2]; week 19 of promotion): 4.4
Papilloma Bearer (%) ([2]; week 20 of promotion): 80.0%
Papillomas/mouse ([2]; week 20 of promotion): 4.6
